Measurements published in patent US8877748B2, “Heterocyclic fused anthraquinone derivatives, manufacturing method and pharmaceutical composition using thereof” (National Defense Medical Center, priority 2012, dated 2014).

How the values were obtained:
HT29 = experiment: NCI one-dose screening, colon cancer HT29; assay type: cell-based, human; conditions: 10 μM
NCI-H226 = experiment: NCI one-dose screening, non-small cell lung cancer NCI-H226; assay type: cell-based, human; conditions: 10 μM
OVCAR-4 = experiment: NCI one-dose screening, ovarian cancer OVCAR-4; assay type: cell-based, human; conditions: 10 μM
SF-268 = experiment: NCI one-dose screening, CNS cancer SF-268; assay type: cell-based, human; conditions: 10 μM
SF-539 = experiment: NCI one-dose screening, CNS cancer SF-539; assay type: cell-based, human; conditions: 10 μM
M14 = experiment: NCI one-dose screening, melanoma M14; assay type: cell-based, human; conditions: 10 μM
786-O = experiment: NCI one-dose screening, renal cancer 786-O; assay type: cell-based, human; conditions: 10 μM
HOP-62 = experiment: NCI one-dose screening, non-small cell lung cancer HOP-62; assay type: cell-based, human; conditions: 10 μM
[1] = tested on: PC-3 prostate cancer cell line; experiment: SRB assay cell viability, PC-3 prostate cancer cell line; assay type: cell-based, human; conditions: Homo sapiens, PC-3 prostate cancer cell line, Table II prints no unit, μM printed, read-out: SRB assay: 50% inhibition of cancer cell proliferation of sample concentration (IC50) of PC-3 prostate cancer cell line
SK-MEL-28 = experiment: NCI one-dose screening, melanoma SK-MEL-28; assay type: cell-based, human; conditions: 10 μM
ACHN = experiment: NCI one-dose screening, renal cancer ACHN; assay type: cell-based, human; conditions: 10 μM
RXF, 393 = experiment: NCI one-dose screening, renal cancer RXF, 393; assay type: cell-based, human; conditions: 10 μM
UACC-257 = experiment: NCI one-dose screening, melanoma UACC-257; assay type: cell-based, human; conditions: 10 μM
UACC-62 = experiment: NCI one-dose screening, melanoma UACC-62; assay type: cell-based, human; conditions: 10 μM
SK-MEL-2 = experiment: NCI one-dose screening, melanoma SK-MEL-2; assay type: cell-based, human; conditions: 10 μM
HCT-15 = experiment: NCI one-dose screening, colon cancer HCT-15; assay type: cell-based, human; conditions: 10 μM
NCI-H23 = experiment: NCI one-dose screening, non-small cell lung cancer NCI-H23; assay type: cell-based, human; conditions: 10 μM
OVCAR-3 = experiment: NCI one-dose screening, ovarian cancer OVCAR-3; assay type: cell-based, human; conditions: 10 μM
COLO 205 = experiment: NCI one-dose screening, colon cancer COLO 205; assay type: cell-based, human; conditions: 10 μM
SR = experiment: NCI one-dose screening, leukemia SR; assay type: cell-based, human; conditions: 10 μM
PRMI-8226 cell line = experiment: NCI one-dose screening, leukemia PRMI-8226; assay type: cell-based, human; conditions: 10 μM
NCI-H460 = experiment: NCI one-dose screening, non-small cell lung cancer NCI-H460; assay type: cell-based, human; conditions: 10 μM
NCI-H322M = experiment: NCI one-dose screening, non-small cell lung cancer NCI-H322M; assay type: cell-based, human; conditions: 10 μM; Non-small cell lung cancer
SNB-75 = experiment: NCI one-dose screening, CNS cancer SNB-75; assay type: cell-based, human; conditions: 10 μM
KM12 = experiment: NCI one-dose screening, colon cancer KM12; assay type: cell-based, human; conditions: 10 μM
SK-MEL-5 = experiment: NCI one-dose screening, melanoma SK-MEL-5; assay type: cell-based, human; conditions: 10 μM
SNB-19 = experiment: NCI one-dose screening, CNS cancer SNB-19; assay type: cell-based, human; conditions: 10 μM
NCI-H522 = experiment: NCI one-dose screening, non-small cell lung cancer NCI-H522; assay type: cell-based, human; conditions: 10 μM
LOX IMVI = experiment: NCI one-dose screening, melanoma LOX IMVI; assay type: cell-based, human; conditions: 10 μM
MALME-3M = experiment: NCI one-dose screening, melanoma MALME-3M; assay type: cell-based, human; conditions: 10 μM
HCT-116 = experiment: NCI one-dose screening, colon cancer HCT-116; assay type: cell-based, human; conditions: 10 μM
OVCAR-5 = experiment: NCI one-dose screening, ovarian cancer OVCAR-5; assay type: cell-based, human; conditions: 10 μM
K562cell line = experiment: NCI one-dose screening, leukemia K562; assay type: cell-based, human; conditions: 10 μM
IGROV1 = experiment: NCI one-dose screening, ovarian cancer IGROV1; assay type: cell-based, human; conditions: 10 μM
SN12C = experiment: NCI one-dose screening, renal cancer SN12C; assay type: cell-based, human; conditions: 10 μM
HCC-2998 = experiment: NCI one-dose screening, colon cancer HCC-2998; assay type: cell-based, human; conditions: 10 μM
NCl/ADR-RES = experiment: NCI one-dose screening, breast cancer NCl/ADR-RES; assay type: cell-based, human; conditions: 10 μM; listed under Ovarian cancer
HL-60, TB = experiment: NCI one-dose screening, leukemia HL-60, TB; assay type: cell-based, human; conditions: 10 μM
U251 = experiment: NCI one-dose screening, CNS cancer U251; assay type: cell-based, human; conditions: 10 μM
A549/ATCC = experiment: NCI one-dose screening, non-small cell lung cancer A549/ATCC; assay type: cell-based, human; conditions: 10 μM
MOLT-4 = experiment: NCI one-dose screening, leukemia MOLT-4; assay type: cell-based, human; conditions: 10 μM
OVCAR-8 = experiment: NCI one-dose screening, ovarian cancer OVCAR-8; assay type: cell-based, human; conditions: 10 μM
TK-10 = experiment: NCI one-dose screening, renal cancer TK-10; assay type: cell-based, human; conditions: 10 μM

SMILES: O=C1c2ccccc2C(=O)c2c1cc(SCc1ccc(Cl)cc1)c1nsnc21 [C56, 4-(4-chloro-benzylthio)anthra[2,1-c] [1,2,5]thiadiazol-6,11-dione]
- Growth Percent HT29 (HT29): 96.41%
- Growth Percent NCI-H226 (NCI-H226): 82.14%
- Growth Percent OVCAR-4 (OVCAR-4): 84.19%
- Growth Percent SF-268 (SF-268): 107.19%
- Growth Percent SF-539 (SF-539): 97.95%
- Growth Percent M14 (M14): 126.40%
- Growth Percent 786-0 (786-O): 117.98%
- Growth Percent HOP-62 (HOP-62): 89.15%
- IC50 [1]: > 15 µM
- melting point: 261 to 262 °C
- Growth Percent SK-MEL-28 (SK-MEL-28): 95.35%
- Growth Percent ACHN (ACHN): 94.35%
- Growth Percent RXF 393 (RXF, 393): 104.79%
- Growth Percent UACC-257 (UACC-257): 78.70%
- Growth Percent UACC-62 (UACC-62): 101.52%
- Growth Percent SK-MEL-2 (SK-MEL-2): 109.63%
- Growth Percent HCT-15 (HCT-15): 97.91%
- Growth Percent NCI-H23 (NCI-H23): 82.13%
- Growth Percent OVCAR-3 (OVCAR-3): 113.46%
- Growth Percent COLO 205 (COLO 205): 99.94%
- Growth Percent SR (SR): 63.73%
- Growth Percent RPMI-8226 (PRMI-8226 cell line): 86.78%
- Growth Percent NCI-H460 (NCI-H460): 104.55%
- Growth Percent NCI-H322M (NCI-H322M): 94.10%
- Growth Percent SNB-75 (SNB-75): 63.35%
- Growth Percent KM12 (KM12): 105.46%
- Growth Percent SK-MEL-5 (SK-MEL-5): 89.57%
- Growth Percent SNB-19 (SNB-19): 104.30%
- Growth Percent NCI-H522 (NCI-H522): 82.61%
- Growth Percent LOX IMVI (LOX IMVI): 86.69%
- Growth Percent MALME-3M (MALME-3M): 86.38%
- Growth Percent HCT-116 (HCT-116): 114.73%
- Growth Percent OVCAR-5 (OVCAR-5): 104.48%
- Growth Percent K562 (K562cell line): 67.53%
- Growth Percent IGROV1 (IGROV1): 84.25%
- Growth Percent SN12C (SN12C): 93.61%
- Growth Percent HCC-2998 (HCC-2998): 102.54%
- Growth Percent NCI/ADR-RES (NCl/ADR-RES): 95.73%
- Growth Percent HL-60(TB) (HL-60, TB): 57.42%
- Growth Percent U251 (U251): 94.44%
- Growth Percent A549/ATCC (A549/ATCC): 100.62%
- Growth Percent MOLT-4 (MOLT-4): 22.72%
- Growth Percent OVCAR-8 (OVCAR-8): 94.19%
- Growth Percent TK-10 (TK-10): 121.91%
